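Cultured in 96-well plates, cells were exposed to test compound for 48 hours across five concentrations. GI50 marks 50% less growth. TGI marks complete inhibition of growth.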
Legend:
Assay in all cases: NCI anticancer screen, dose series, 48 h
786-0 renal = system: 786-0 renal
CAKI-1 renal = system: CAKI-1 renal
K-562 leukemia = system: K-562 leukemia
MCF7 breast = system: MCF7 breast
RPMI-8226 leukemia = system: RPMI-8226 leukemia
SK-MEL-2 melanoma = system: SK-MEL-2 melanoma
SK-OV-3 ovarian = system: SK-OV-3 ovarian
T-47D breast = system: T-47D breast
UO-31 renal = system: UO-31 renal

| SMILES | GI50 (786-0 renal) | TGI (786-0 renal) | GI50 (CAKI-1 renal) | GI50 (K-562 leukemia) | TGI (K-562 leukemia) | GI50 (MCF7 breast) | TGI (MCF7 breast) | GI50 (RPMI-8226 leukemia) | TGI (RPMI-8226 leukemia) | GI50 (SK-MEL-2 melanoma) | TGI (SK-MEL-2 melanoma) | GI50 (SK-OV-3 ovarian) | TGI (SK-OV-3 ovarian) | GI50 (T-47D breast) | TGI (T-47D breast) | GI50 (UO-31 renal) | TGI (UO-31 renal) | TGI (CAKI-1 renal) |
| --- | --- | --- | --- | --- | --- | --- | --- | --- | --- | --- | --- | --- | --- | --- | --- | --- | --- | --- |
| COc1cc(C(=O)/C=C/c2c(C)n([O-])c3ccc(C)cc3[n+]2=O)cc(OC)c1OC | 7.62 µM | 21.7 µM | 2.2 µM | 2.8 µM | > 24.7 µM | 3.3 µM | 12.5 µM | 2.87 µM | 17.6 µM | 15 µM | 31.2 µM | 32.7 µM | > 100 µM | 2.23 µM | 5.81 µM | 4.63 µM | 10.1 µM | – |
| C/C(=N\NC(=O)c1sc(=S)n(C)c1N)c1cc2ccccc2o1 | 14.9 µM | 29.8 µM | 37.6 µM | 6.38 µM | 30.8 µM | 12.3 µM | 30.4 µM | 12.5 µM | 49.4 µM | 14 µM | 37 µM | 20.9 µM | 55.6 µM | 18.6 µM | > 100 µM | 18.3 µM | 37.8 µM | > 100 µM |
| COc1cc(NS(C)(=O)=O)ccc1Nc1c2ccc([N+](=O)[O-])cc2nc2c(C)cccc12 | 0.362 µM | 6.04 µM | 1.13 µM | 0.801 µM | 9.89 µM | 0.0133 µM | 12.2 µM | 0.18 µM | 1.99 µM | 4.07 µM | 16.1 µM | 0.891 µM | 11.5 µM | 0.117 µM | 7.68 µM | 1.22 µM | 11.4 µM | 6.94 µM |
| N#Cc1c(-c2ccccc2)nc(SCC2CO2)nc1N1CCOCC1 (configuration not stated) | 4.12 µM | > 46.1 µM | 1.07 µM | > 47.2 µM | > 100 µM | 3.06 µM | > 100 µM | 9.41 µM | 72.9 µM | 14.7 µM | 75.7 µM | 8.25 µM | 57.3 µM | 2.74 µM | 16.4 µM | 5.61 µM | > 100 µM | 17 µM |
| COc1cccc2c1C(=O)C=CC2=O | – | 23.9 µM | – | – | 4.97 µM | – | 4.82 µM | – | 7.23 µM | – | 19.8 µM | – | 36.2 µM | – | 5.04 µM | – | 28.9 µM | 13 µM |
| F | 2550 µM | > 6870 µM | 3220 µM | 3630 µM | > 6870 µM | 4020 µM | > 6870 µM | 3060 µM | > 6870 µM | 1440 µM | 2890 µM | 3680 µM | > 6870 µM | 2100 µM | 5670 µM | 1790 µM | 6220 µM | > 6870 µM |
| CN(Cc1cnc2nc(N)nc(N)c2n1)c1ccc(C(=O)NC(CCC(=O)O)C(=O)O)cc1C(F)(F)F (configuration not stated) | – | > 100 µM | – | – | > 100 µM | – | > 100 µM | – | > 100 µM | – | > 100 µM | – | > 100 µM | – | > 100 µM | – | > 100 µM | > 100 µM |

Source: PubChem BioAssay (NCI)
